Laboratory results taken from patent US20060265776A1, “Viability” (priority 2003, published 2006).
“Also recorded” adds a separate entry of the source.

Legend:
[1] = system: Arabidopsis thaliana cell suspension cultures; experiment: Viability staining with fluorescein diacetate and propidium iodide; type: cell-based; details: apyrase-treated cultures, 3 days
Method: The inventors decided to use viability staining to confirm cell death in these cell cultures. To achieve this, […] aliquots were removed from the cultures and the cells resuspended in 0.2M CaCl2 after removal of the growth medium. The aliquots were doubly-stained by incubating for 5 minutes with a final concentration of 25 μg/mL fluorescein diacetate [0.5% (w/v) stock solution in acetone] and 50 μg/mL propidium iodide [10 mg/mL stock solution in phosphate-buffered saline pH 7.4]. […] The viable cells had also excluded propidium iodide, which is non-permeative and can only cross membranes of dead or dying cells. Dead cells had taken up propidium iodide, which binds to DNA, resulting in nuclei emitting a very intense red fluorescence.

tobacco leaves = experiment: Leaf infiltration, tobacco; type: in vivo, Nicotiana tabacum
Method: (§1) Tobacco (Nicotiana tabacum), Arabidopsis, and bean (Phaseolus vulgaris) plants were sown in soil and raised in a growth cabinet with a 16-hour photoperiod at 20° C. and 8 hours of darkness at 15° C. The relative humidity was maintained at 60% and the photon flux density was 250 μmolm^−2 s^−1. […] Only the cotyledons of bean plants were treated. The abaxial surface of a small zone of leaf tissue was treated by infiltrating the apoplast with the solution using a syringe and hypodermic needle. The three test solutions had the following concentrations of either: 0.5 units/μL apyrase, 1.85 units/μL hexokinase plus 100 mM glucose, or 1-5 mM AMP-PCP (pH 6.5).

bean plants = experiment: Leaf infiltration, bean; type: in vivo, Phaseolus vulgaris; details: apyrase, hexokinase; 100 mM glucose
Method: as §1

[2] = system: Tobacco (Nicotiana tabacum), Arabidopsis, and bean (Phaseolus vulgaris) plants; experiment: Leaf infiltration of extracellular ATP depletion systems, whole plants; type: in vivo; details: 0.5 units/μL apyrase, 1.85 units/μL hexokinase plus 100 mM glucose, 1-5 mM AMP-PCP (pH 6.5); ATP (pH 6.5)
Method: as §1
The concentrations used were the same as defined above unless stated otherwise.

[3] = system: Black Mexican sweet corn cells; experiment: Cell viability of corn suspension cells; type: cell-based, Zea mays; details: 1 mM ATP, 1 mM AMP-PCP, 100 units/mL apyrase, 200 units/mL hexokinase; 100 mM glucose in culture
[4] = system: Arabidopsis thaliana cell suspension cultures; type: cell-based
Method: A. thaliana cell cultures were grown as described in example 1. Aliquots of the cell suspension (1.5 mL) were treated with a final concentration of 0, 20, 50, or 100 units/mL of apyrase. […] The dead cells had become buoyant and adhered to the walls of the vials, forming a ring just above the edge of the swirling medium. The ring of cells was sometimes dislodged and fell into the medium, resulting in apyrase-treated cultures having flakes of dead cells at the bottom of the vials.
To quantify the effect of apyrase on cell viability, the ability of the cells to grow and multiply subsequent to treatment was measured after diluting the cultures by over 30 times in fresh medium not containing any additives. This was achieved by transferring the cells treated for 3 days to 50 mL of fresh growth medium and allowing them to grow for a further 4 days. At the end of this period, triplicate 1 mL aliquots were sampled from the cultures and the volume of the cells was measured and expressed as a percentage of the culture volume. The method used to determine the packed cell volume was as follows: 1 mL cell culture aliquots were placed in 1.5 mL microfuge tubes and the cells gently compacted by centrifuging (1000 rpm., 10 minutes) in a swing-out rotor (Grundrotor 11030; Sigma laborzentrifugen GmbH, Oestrode, Germany). The level of the cells was marked on the wall of the tube and the volume of cells determined by measuring the volume of water needed to fill the tube to the marked level. The packed cell volume was expressed as the volume occupied by cells as a percentage of 1000 μL.
In each case the error bars represent the standard deviation.

apyrase
dead cells by viability staining [1]: significantly high proportion of cells in the apyrase-treated cell cultures was dead
local tissue death after infiltration of tobacco leaves (tobacco leaves; 1 mM AMP-PCP, 1 mM ATP, apyrase, hexokinase plus glucose): development of localised necrotic lesions
state of tobacco plant after treatment of a leaf (tobacco leaves; 5 mM AMP-PCP or equivalent amount of ATP, after 4 days): Comparable results
necrotic lesions on bean leaves (bean plants): development of necrotic lesions on leaves
necrotic lesions after local leaf infiltration [2]: development of necrotic lesions in the area where the application was made within 2 days of treatment; also recorded: localised necrotic lesions
viability of corn cells [3]: caused significant cell death
loss in viability [4]: over 80%
cell death seen in cultures ([4]; 20, 50 or 100 units/mL apyrase, incubated for 3 days): showed a significant frequency of cell death
cell viability with increasing concentration (dose-response), in words ([4]; apyrase 0-100 units/mL, hexokinase 0-200 units/mL with 100 mM glucose, AMP-PCP 0-1.5 mM): progressive decrease in cell viability
